For assay [1], the target named is T1, human α5β3γ2 GABAARs in mouse L(tk−) cells (Homo sapiens, UniProt P18507+P31644).
T1 construct: expressed in transfected cells; host or cells: mouse L(tk−) cells, dexamethasone-inducible vector pMSGneo
Nature of the assay: In vitro electrophysiological recording assay (α5-GABAAR relative efficacy), QPatch. The conditions noted are these: GABA EC10-20. In kind it is cell-based. Put shortly: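 Whole-cell QPatch recordings at 20-22° C, −65 mV holding, in dexamethasone-induced (1 μM, 24 h) L(tk−) cells. Compound pre-applied ≥1 min, then co-applied with GABA EC10-20; percentage change in leak-corrected peak current, taken at ≥100× Ki, normalised to DMCM efficacy; 0.1% DMSO final.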

Assay [2] concerns the target T2, human recombinant GABAAR containing α5β3γ2 subunits (benzodiazepine site) (Homo sapiens, UniProt P18507+P31644).
T2 construct: expressed in transfected cells; host or cells: mouse L(tk−) cells, dexamethasone-inducible vector pMSGneo
In words: In vitro radioligand binding assay (α5-GABAAR Ki). Conditions: inhibition of [3H]Ro15-1788 binding, membranes of L(tk−) cells expressing human α5β3γ2; read-out: α5-GABAAR Ki. In short, it runs like this:
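Displacement of 4 nM [^3H]flumazenil from the benzodiazepine site, read by filtration and scintillation, gave IC50, converted to Ki (Cheng-Prusoff, saturation-derived Kd). Receptor: human α5β3γ2 membranes from L(tk^−) cells, 50 μg protein/well; 1 h, 4° C; TP003 1 μM defined nonspecific binding.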

The source of these data is patent publication US20240425491A1, “HETEROARYL COMPOUNDS USEFUL IN THE TREATMENT OF COGNITIVE DISORDERS” (University College Cardiff Consultants Limited, priority 2021, published 2024).

Structures are written as SMILES.

T2 sequence (P31644 32-462): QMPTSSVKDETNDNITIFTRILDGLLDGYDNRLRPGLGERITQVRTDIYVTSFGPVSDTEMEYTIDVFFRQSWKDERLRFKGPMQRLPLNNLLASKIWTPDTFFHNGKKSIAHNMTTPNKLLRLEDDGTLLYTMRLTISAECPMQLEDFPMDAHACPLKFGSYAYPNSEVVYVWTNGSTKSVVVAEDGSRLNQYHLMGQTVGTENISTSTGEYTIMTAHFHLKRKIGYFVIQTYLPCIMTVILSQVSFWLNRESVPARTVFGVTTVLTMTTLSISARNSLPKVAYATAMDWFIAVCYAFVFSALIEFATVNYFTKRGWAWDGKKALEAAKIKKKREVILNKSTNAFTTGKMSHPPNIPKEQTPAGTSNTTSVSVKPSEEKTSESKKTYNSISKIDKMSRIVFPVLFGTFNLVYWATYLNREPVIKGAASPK
T2 sequence (P28472 26-473 partner): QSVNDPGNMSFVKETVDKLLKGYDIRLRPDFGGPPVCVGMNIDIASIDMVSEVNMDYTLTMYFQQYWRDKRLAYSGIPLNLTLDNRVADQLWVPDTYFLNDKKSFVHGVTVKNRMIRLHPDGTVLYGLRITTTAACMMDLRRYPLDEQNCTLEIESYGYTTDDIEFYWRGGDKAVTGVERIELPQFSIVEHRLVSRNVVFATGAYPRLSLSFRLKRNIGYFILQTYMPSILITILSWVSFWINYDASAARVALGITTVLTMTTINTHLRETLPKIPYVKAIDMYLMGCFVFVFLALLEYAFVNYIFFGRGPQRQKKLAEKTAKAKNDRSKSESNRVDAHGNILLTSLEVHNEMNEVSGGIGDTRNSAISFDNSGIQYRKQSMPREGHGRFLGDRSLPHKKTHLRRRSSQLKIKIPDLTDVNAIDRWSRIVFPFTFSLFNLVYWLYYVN
T2 sequence (P18507 40-475): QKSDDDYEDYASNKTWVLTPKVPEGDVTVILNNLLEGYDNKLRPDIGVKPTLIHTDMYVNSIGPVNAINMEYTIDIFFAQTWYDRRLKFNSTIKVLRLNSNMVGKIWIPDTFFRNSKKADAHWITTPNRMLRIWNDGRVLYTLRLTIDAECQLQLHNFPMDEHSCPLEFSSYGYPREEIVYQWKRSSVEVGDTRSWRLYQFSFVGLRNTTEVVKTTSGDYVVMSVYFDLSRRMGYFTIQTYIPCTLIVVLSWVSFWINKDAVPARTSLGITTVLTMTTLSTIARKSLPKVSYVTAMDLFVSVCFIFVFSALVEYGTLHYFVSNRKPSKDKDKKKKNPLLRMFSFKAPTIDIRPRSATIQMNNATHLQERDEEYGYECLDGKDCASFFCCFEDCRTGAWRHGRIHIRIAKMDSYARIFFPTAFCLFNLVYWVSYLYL
T1 sequence (P31644 32-462): as the sequence (P31644 32-462) above
T1 sequence (P28472 26-473 partner): as the sequence (P28472 26-473 partner) above
T1 sequence (P18507 40-475): as the sequence (P18507 40-475) above

Consider `COc1nc(-c2cnc3cnn(C)c3c2)ccc1NC(=O)c1c(-c2ccccc2)noc1C` [Example 100, N-(2-Methoxy-6-(1-methyl-1H-pyrazolo[4,3-b]pyridin-6-yl)pyridin-3-yl)-5-methyl-3-phenylisoxazole-4-carboxamide], for which the “α5-GABAAR Relative Efficacy (to DMCM), Qpatch” value (“α5-GABAAR Relative Efficacy” for short) in assay [1] (Conc 0.3 μM) is −0.72. Besides, the Ki in assay [2] stood at 3 nM.
For `COc1nc(-n2ccnc2)cnc1NC(=O)c1c(-c2ccccc2)noc1C` [Example 44, N-(5-Imidazol-1-yl-3-methoxy-pyrazin-2-yl)-5-methyl-3-phenyl-isoxazole-4-carboxamide], the “α5-GABAAR Relative Efficacy” value in assay [1] (Conc 1 μM) is −0.69. Moreover, the inhibition constant Ki in assay [2] was found to be 3.6 nM.
Regarding `COc1nc(-c2ccc(N3CC[C@@H](O)C3)nc2)ccc1NC(=O)c1c(-c2ccccc2)noc1C` [Example 99, (R)—N-(6′-(3-Hydroxypyrrolidin-1-yl)-6-methoxy-[2,3′-bipyridin]-5-yl)-5-methyl-3-phenylisoxazole-4-carboxamide], in assay [1] (Conc 1 μM), the “α5-GABAAR Relative Efficacy” value was −0.70. Moreover, the inhibitory constant (Ki) in assay [2] was found to be 6.7 nM.
As for `CNCc1ncc(-c2ccc(NC(=O)c3c(-c4ccccc4)noc3C)c(OC)n2)cn1.Cl` [Example 168, N-[2-Methoxy-6-[2-(methylaminomethyl)pyrimidin-5-yl]-3-pyridyl]-5-methyl-3-phenyl-isoxazole-4-carboxamide hydrochloride], the “α5-GABAAR Relative Efficacy” value in assay [1] (Conc 0.3 μM) is −0.72. Moreover, in assay [2], the Ki stood at 2.7 nM.
Take `CNCCNC(=O)c1ncc(-c2ccc(NC(=O)c3c(-c4ccccc4)noc3C)c(OC)n2)cn1.Cl` [Example 173, N-[2-Methoxy-6-[2-[2-(methylamino)ethylcarbamoyl]pyrimidin-5-yl]-3-pyridyl]-5-methyl-3-phenyl-isoxazole-4-carboxamide hydrochloride]: the “α5-GABAAR Relative Efficacy” value in assay [1] (Conc 0.1 μM) is given as −0.88. For the same molecule, in assay [2], the Ki was determined as 0.3 nM.
As for `COc1nc(-c2cnc(C3CC3)nc2)ccc1NC(=O)c1c(-c2ccccc2)noc1C` [Example 17, N-[6-(2-Cyclopropylpyrimidin-5-yl)-2-methoxy-3-pyridyl]-5-methyl-3-phenyl-isoxazole-4-carboxamide], the “α5-GABAAR Relative Efficacy” value in assay [1] (Conc 3 μM) is listed as −0.81. Besides, in assay [2], the inhibition constant (Ki) turned out to be 10.8 nM.
In the case of `COc1ccc(-c2ccc(NC(=O)c3c(-c4ccccc4)noc3C)c(OC)n2)nn1` [Example 128, N-[2-Methoxy-6-(6-methoxypyridazin-3-yl)-3-pyridyl]-5-methyl-3-phenyl-isoxazole-4-carboxamide], the “α5-GABAAR Relative Efficacy” value in assay [1] (Conc 10 μM) is listed as −0.19. Besides, in assay [2], the Ki was 46.7 nM.
Consider `COc1nc(-n2ccnc2)ccc1NC(=O)c1c(C)nnn1-c1ccccc1` [Example 151, N-(6-(1H-Imidazol-1-yl)-2-methoxypyridin-3-yl)-4-methyl-1-phenyl-1H-1,2,3-triazole-5-carboxamide], for which, in assay [1] (Conc 3 μM), the “α5-GABAAR Relative Efficacy” value is given as −0.89. The inhibitory constant (Ki) in assay [2] worked out at 45.1 nM.
For the molecule `COc1nc(-c2cnc(OCC(F)(F)F)nc2)ccc1NC(=O)c1c(-c2ccccc2)noc1C` [Example 59, N-[2-Methoxy-6-[2-(2,2,2-trifluoroethoxy)pyrimidin-5-yl]-3-pyridyl]-5-methyl-3-phenyl-isoxazole-4-carboxamide], in assay [1] (Conc 3 μM), the “α5-GABAAR Relative Efficacy” value is given as −0.75. Also, in assay [2], the inhibition constant Ki amounted to 10.4 nM.
For the molecule `COc1nc(-c2c(C)noc2C)ccc1NC(=O)c1c(-c2ccccc2)noc1C` [Example 6, N-[6-(3,5-Dimethylisoxazol-4-yl)-2-methoxy-3-pyridyl]-5-methyl-3-phenyl-isoxazole-4-carboxamide], the “α5-GABAAR Relative Efficacy” value in assay [1] (Conc 10 μM) is given as −0.22. For the same molecule, the Ki in assay [2] came to 33.1 nM.
In the case of `COc1nc(-c2cccnc2)ccc1NC(=O)c1c(-c2ccccc2)noc1C` [Example 37, N-(6-Methoxy-[2,3′-bipyridin]-5-yl)-5-methyl-3-phenylisoxazole-4-carboxamide], the “α5-GABAAR Relative Efficacy” value in assay [1] (Conc 0.3 μM) is −0.56. The inhibitory constant (Ki) in assay [2] came out at 2.8 nM.
For `COc1cc(-c2cncnc2)ccc1NC(=O)c1c(-c2ccccc2)noc1C` [Example 13, N-(2-Methoxy-4-pyrimidin-5-yl-phenyl)-5-methyl-3-phenyl-isoxazole-4-carboxamide], the “α5-GABAAR Relative Efficacy” value in assay [1] (Conc 1 μM) was −0.85. For the same molecule, the Ki in assay [2] was found to be 3.6 nM.
Consider `COc1nc(-c2cncc(-n3cccn3)c2)ccc1NC(=O)c1c(-c2ccccc2)noc1C` [Example 90, N-(6-Methoxy-5′-(1H-pyrazol-1-yl)-[2,3′-bipyridin]-5-yl)-5-methyl-3-phenylisoxazole-4-carboxamide], for which the “α5-GABAAR Relative Efficacy” value in assay [1] (Conc 1 μM) is −0.58. In addition, the Ki in assay [2] came to 3.4 nM.
On to `COc1nc(-c2nccnc2N)ccc1NC(=O)c1c(-c2ccccc2)noc1C` [Example 54, N-[6-(3-Aminopyrazin-2-yl)-2-methoxy-3-pyridyl]-5-methyl-3-phenyl-isoxazole-4-carboxamide], for which, in assay [1] (Conc 1 μM), the “α5-GABAAR Relative Efficacy” value is recorded as −0.55. In assay [2], the Ki amounted to 7.4 nM.
`COc1nc(-c2cnoc2)ccc1NC(=O)c1c(C)nnn1-c1ccccc1` [Example 124, N-(6-(Isoxazol-4-yl)-2-methoxypyridin-3-yl)-4-methyl-1-phenyl-1H-1,2,3-triazole-5-carboxamide]: the “α5-GABAAR Relative Efficacy” value in assay [1] (Conc 3 μM) was −1.40. The Ki in assay [2] is 23.6 nM.
For `COc1nc(-c2cnc3ncccn23)ccc1NC(=O)c1c(-c2ccccc2)noc1C` [Example 136, N-(6-(Imidazo[1,2-a]pyrimidin-3-yl)-2-methoxypyridin-3-yl)-5-methyl-3-phenylisoxazole-4-carboxamide], the “α5-GABAAR Relative Efficacy” value in assay [1] (Conc 1 μM) is listed as −0.60. Also, the inhibitory constant (Ki) in assay [2] was 3.3 nM.
Regarding `COc1nc(-c2cnn(C)c2)cnc1NC(=O)c1c(-c2ccccc2)noc1C` [Example 19, N-[3-Methoxy-5-(1-methylpyrazol-4-yl)pyrazin-2-yl]-5-methyl-3-phenyl-isoxazole-4-carboxamide], the “α5-GABAAR Relative Efficacy” value in assay [1] (Conc 1 μM) is given as −0.86. Besides, in assay [2], the inhibitory constant (Ki) turned out to be 4.3 nM.
With `COc1nc(-c2ccc(CO)nc2)cnc1NC(=O)c1c(-c2ccccc2)noc1C` [Example 148, N-[5-[6-(Hydroxymethyl)-3-pyridyl]-3-methoxy-pyrazin-2-yl]-5-methyl-3-phenyl-isoxazole-4-carboxamide], the “α5-GABAAR Relative Efficacy” value in assay [1] (Conc 0.3 μM) was −0.80. For the same molecule, the Ki in assay [2] worked out at 1.2 nM.
In the case of `Cc1onc(-c2ccccc2)c1C(=O)Nc1ccc(-n2ccnc2)nc1N(C)C` [Example 176, N-[2-(Dimethylamino)-6-imidazol-1-yl-3-pyridyl]-5-methyl-3-phenyl-isoxazole-4-carboxamide], the “α5-GABAAR Relative Efficacy” value in assay [1] (Conc 1 μM) is −0.36. The Ki in assay [2] was found to be 9 nM.
As to `COc1nc(-c2ncc[nH]2)ccc1NC(=O)c1c(-c2ccccc2)noc1C` [Example 121, N-[6-(1H-Imidazol-2-yl)-2-methoxy-3-pyridyl]-5-methyl-3-phenyl-isoxazole-4-carboxamide], the “α5-GABAAR Relative Efficacy” value in assay [1] (Conc 0.3 μM) is on record as −0.36. In addition, the Ki in assay [2] worked out at 2.1 nM.
Regarding `CNC(=O)c1ncc(-c2ccc(NC(=O)c3c(-c4ccccc4)noc3C)c(OC)n2)cn1` [Example 75, N-[2-Methoxy-6-[2-(methylcarbamoyl)pyrimidin-5-yl]-3-pyridyl]-5-methyl-3-phenyl-isoxazole-4-carboxamide], the “α5-GABAAR Relative Efficacy” value in assay [1] (Conc 0.1 μM) is reported as −0.92. In addition, the inhibitory constant (Ki) in assay [2] was determined as 0.6 nM.
